Laboratory results taken from patent US7902187B2, “6-substituted 2-(benzimidazolyl)purine and purinone derivatives for immunosuppression” (Wyeth LLC, priority 2006, dated 2011).

These molecules were tested against T1, Jak3 (Homo sapiens, UniProt P52333) (assay: Jak3 Kinase Assay (HTRF)). Details: GST-Jak3 catalytic domain, 1 μM ATP, 60-min incubation; read-out: Jak3 Kinase, IC50 representation.
T1 construct: A fragment encoding the catalytic domain of Jak3 (508aa to 1124aa) was ligated with GST at 5′ end; made in house; host or cells: Sf9 insect cells (baculovirus, pFastBac 1)
T1 sequence (P52333 508-1124): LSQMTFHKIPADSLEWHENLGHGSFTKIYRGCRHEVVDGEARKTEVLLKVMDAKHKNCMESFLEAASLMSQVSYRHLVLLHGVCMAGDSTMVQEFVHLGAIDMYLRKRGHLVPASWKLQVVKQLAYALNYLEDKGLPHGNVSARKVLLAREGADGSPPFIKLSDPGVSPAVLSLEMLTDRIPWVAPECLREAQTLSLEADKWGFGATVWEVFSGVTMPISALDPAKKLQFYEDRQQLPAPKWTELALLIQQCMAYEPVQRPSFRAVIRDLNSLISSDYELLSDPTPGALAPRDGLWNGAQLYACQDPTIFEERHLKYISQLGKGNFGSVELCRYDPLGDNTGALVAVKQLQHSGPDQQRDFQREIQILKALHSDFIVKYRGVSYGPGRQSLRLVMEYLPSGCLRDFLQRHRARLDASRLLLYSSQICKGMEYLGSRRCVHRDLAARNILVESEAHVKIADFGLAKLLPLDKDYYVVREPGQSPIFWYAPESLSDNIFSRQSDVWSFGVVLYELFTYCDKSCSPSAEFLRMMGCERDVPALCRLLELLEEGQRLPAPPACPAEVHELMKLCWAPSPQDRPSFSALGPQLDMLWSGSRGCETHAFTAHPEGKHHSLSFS
Format: biochemical
Experimental: Human Jak3 cDNA was amplified by PCR. A fragment encoding the catalytic domain of Jak3 (508aa to 1124aa) was ligated with GST at 5′ end. This fused GST-Jak3 DNA fragment was cloned into the EcoRI site of the donor plasmid pFastBac 1 (Life Technologies #10359-016). The transformation, transposition, and transfection of insect cells (Sf9) were performed according to the manufacture's instructions. The cell lysate containing recombinant GST-Jak3 was used in the kinase assay. Anti-GST antibody (10 μg/ml, Sigma #G1417) was coated onto a 384-well plate at 4° C. overnight. Cell lysate containing GST-Jak3 (1:100 dilution) was added to the anti-GST coated plates, and GST-Jak3 was captured by immobilized anti-GST antibody. Testing compounds and substrate mix (50 mM HEPES, pH 7, 0.5 mM Na3VO4, 25 mM MgCl2, 1 mM DTT, 0.005% BSA, 1 μM ATP, and 4.5 μg/ml biotinyl poly-Glu,Ala,Tyr) were added to the plate to initiate the reaction. After a 60-min incubation, the reaction was stopped by 4 mM EDTA, and phosphorylation of biotinyl poly-Glu,Ala,Tyr was detected using 17 μg/ml Cy5-streptavidin (Amersham, #PA92005) and 2.7 μg/ml Europium-conjugated anti-phosphotyrosine antibody (PerkinElmer #AD0069) using homogeneous time-resolved fluorescence (HTRF) technology.

IC50 [µM] | SMILES
< 0.1 | N#Cc1ccc2ncn(-c3nc(N4CC(O)C4)c4[nH]c(=O)n(C5CCOCC5)c4n3)c2c1
< 0.1 | Cn1c(=O)n([C@H]2CC[C@H](O)CC2)c2nc(-n3cnc4ccc(C#N)cc43)nc(N3CC(F)(F)C3)c21
< 0.1 | N#Cc1ccc2ncn(-c3nc(N4CC(C(=O)O)C4)c4[nH]c(=O)n(C5CCOCC5)c4n3)c2c1
< 0.1 | N#Cc1ccc2ncn(-c3nc(N4CC(F)(F)C4)c4[nH]c(=O)n(C5CCOCC5)c4n3)c2c1
< 0.1 | O=c1[nH]c2c(N3CC(O)C3)nc(-n3cnc4ccc(F)cc43)nc2n1[C@@H]1CCOc2c(F)cccc21
< 0.1 | Cn1c(=O)n([C@H]2CC[C@H](O)CC2)c2nc(-n3cnc4ccc(Cl)cc43)nc(N3CC[C@H](F)C3)c21
< 0.1 | N#Cc1ccc2ncn(-c3nc(N4CCOCC4)c4[nH]c(=O)n(C5CCOCC5)c4n3)c2c1
< 0.1 | O=c1[nH]c2c(N3CC(O)C3)nc(-n3cnc4ccc(Cl)cc43)nc2n1C1CCOCC1
< 0.1 | O=c1[nH]c2c(N3CC(F)(F)C3)nc(-n3cnc4ccc(F)cc43)nc2n1[C@H]1CC[C@H](O)CC1
< 0.1 | N#Cc1ccc2ncn(-c3nc(NCCCN)c4[nH]c(=O)n(C5CCOCC5)c4n3)c2c1
< 0.1 | O=c1[nH]c2c(N3CC[C@H](F)C3)nc(-n3cnc4ccc(F)cc43)nc2n1C1CCOCC1
< 0.1 | Cn1c(=O)n([C@H]2CC[C@H](O)CC2)c2nc(-n3cnc4ccc(F)cc43)nc(N3CCC3)c21
< 0.1 | Cn1c(=O)n([C@H]2CC[C@H](O)CC2)c2nc(-n3cnc4ccc(Cl)cc43)nc(N3CC[C@@H](F)C3)c21
< 0.1 | N#Cc1ccc2ncn(-c3nc(N4CCCC(O)CC4)c4[nH]c(=O)n(C5CCOCC5)c4n3)c2c1 (centres unmarked)
< 0.1 | Cn1c(=O)n([C@H]2CC[C@H](O)CC2)c2nc(-n3cnc4ccc(F)cc43)nc(N3CC[C@@H](F)C3)c21
< 0.1 | NC(=O)C1CCN(c2nc(-n3cnc4ccc(F)cc43)nc3c2[nH]c(=O)n3C2CCOCC2)CC1
< 0.1 | CN1CCCN(c2nc(-n3cnc4ccc(Cl)cc43)nc3c2[nH]c(=O)n3C2CCOCC2)CC1
< 0.1 | N#Cc1ccc2ncn(-c3nc(N4CCS(=O)(=O)CC4)c4[nH]c(=O)n(C5CCOCC5)c4n3)c2c1
< 0.1 | Cn1c(=O)n([C@H]2CC[C@H](O)CC2)c2nc(-n3cnc4ccc(F)cc43)nc(N3CCCC3)c21
< 0.1 | Cn1c(=O)n([C@H]2CC[C@H](O)CC2)c2nc(-n3cnc4ccc(Cl)cc43)nc(N3CC(F)(F)C3)c21
< 0.1 | CC(C)(C)OC(=O)N1CC(Nc2nc(-n3cnc4ccc(Cl)cc43)nc3c2[nH]c(=O)n3C2CCOCC2)C1

IC50 [µM] | SMILES
< 0.1 | O=c1[nH]c2c(NCCCO)nc(-n3cnc4ccc(Cl)cc43)nc2n1C1CCOCC1
< 0.1 | O=c1[nH]c2c(N3CC(O)C3)nc(-n3cnc4ccc(F)cc43)nc2n1C1CCOCC1
< 0.1 | CN1CCC(Nc2nc(-n3cnc4ccc(C#N)cc43)nc3c2[nH]c(=O)n3C2CCOCC2)CC1
< 0.1 | Cn1c(=O)n([C@H]2CC[C@H](O)CC2)c2nc(-n3cnc4ccc(Cl)cc43)nc(N3CCC(F)CC3)c21
< 0.1 | O=c1[nH]c2c(N3CCC(O)C3)nc(-n3cnc4ccc(F)cc43)nc2n1C1CCOCC1 (centres unmarked)
< 0.1 | O=c1[nH]c2c(N3CCCC3)nc(-n3cnc4ccc(F)cc43)nc2n1C1CCOCC1
< 0.1 | COCCNc1nc(-n2cnc3ccc(Cl)cc32)nc2c1[nH]c(=O)n2C1CCOCC1
< 0.1 | Cn1c(=O)n([C@H]2CC[C@H](O)CC2)c2nc(-n3cnc4ccc(F)cc43)nc(N3CC(F)(F)C3)c21
< 0.1 | O=c1[nH]c2c(N3CC[C@@H](F)C3)nc(-n3cnc4ccc(F)cc43)nc2n1C1CCOCC1
< 0.1 | O=c1[nH]c2c(N3CC(F)(F)C3)nc(-n3cnc4ccc(Cl)cc43)nc2n1C1CCOCC1
0.1 to 1 | O=C(c1nc(-n2cnc3ccc(F)cc32)nc2c1[nH]c(=O)n2C1CCOCC1)N1CCCCC1
0.1 to 1 | O=c1[nH]c2c(-c3ccc(F)cc3)nc(-n3cnc4ccc(F)cc43)nc2n1C1CCOCC1
0.1 to 1 | O=c1[nH]c2c(CO)nc(-n3cnc4ccc(F)cc43)nc2n1C1CCOCC1
0.1 to 1 | CCOC(=O)c1nc(-n2cnc3ccc(F)cc32)nc2c1[nH]c(=O)n2C1CCOc2ccccc21 (centres unmarked)
0.1 to 1 | O=c1[nH]c2c(OCC3CC3)nc(-n3cnc4ccc(F)cc43)nc2n1C1CCOCC1
0.1 to 1 | CCOC(=O)c1nc(-n2cnc3ccc(F)cc32)nc2c1[nH]c(=O)n2C1CCOCC1
0.1 to 1 | CCOC(=O)CCc1nc(-n2cnc3ccc(F)cc32)nc2c1[nH]c(=O)n2[C@@H]1CCOc2c(F)cccc21
0.1 to 1 | O=C(O)c1nc(-n2cnc3ccc(F)cc32)nc2c1[nH]c(=O)n2C1CCOCC1
0.1 to 1 | O=c1[nH]c2c(OC3CCOC3)nc(-n3cnc4ccc(F)cc43)nc2n1C1CCOCC1 (centres unmarked)
0.1 to 1 | CO[C@H]1CC[C@H](n2c(=O)[nH]c3c(Cl)nc(-n4cnc5ccc(C#N)cc54)nc32)CC1
0.1 to 1 | O=c1[nH]c2c(-c3ccccc3)nc(-n3cnc4ccc(F)cc43)nc2n1[C@@H]1CCOc2c(F)cccc21

IC50 [µM] | SMILES
0.1 to 1 | CC1CCN(c2nc(-n3cnc4ccc(Cl)cc43)nc3c2[nH]c(=O)n3C2CCOCC2)CC1
0.1 to 1 | N#Cc1ccc(-c2nc(-n3cnc4ccc(F)cc43)nc3c2[nH]c(=O)n3[C@@H]2CCOc3c(F)cccc32)cc1
0.1 to 1 | O=c1[nH]c2c(NCc3ccccc3)nc(-n3cnc4ccc(F)cc43)nc2n1C1CCOCC1
0.1 to 1 | Cc1cccc(-c2nc(-n3cnc4ccc(F)cc43)nc3c2[nH]c(=O)n3C2CCOCC2)c1
0.1 to 1 | O=c1[nH]c2c(C3CCC3)nc(-n3cnc4ccc(F)cc43)nc2n1C1CCOCC1
0.1 to 1 | O=c1[nH]c2c(NCC3CC3)nc(-n3cnc4ccc(F)cc43)nc2n1[C@@H]1CCOc2c(F)cccc21
0.1 to 1 | O=c1[nH]c2c(-c3ccccc3)nc(-n3cnc4ccccc43)nc2n1[C@@H]1CCOc2ccc(F)cc21
0.1 to 1 | O=c1[nH]c2c(Cc3ccccc3)nc(-n3cnc4ccc(F)cc43)nc2n1[C@@H]1CCOc2c(F)cccc21
0.1 to 1 | C[C@H](Nc1nc(-n2cnc3ccc(F)cc32)nc2c1[nH]c(=O)n2C1CCOCC1)c1ccccc1
0.1 to 1 | O=c1[nH]c2c(-c3ccccc3)nc(-n3cnc4ccccc43)nc2n1C1CCOCC1
0.1 to 1 | O=c1[nH]c2c(-c3ccc(Cl)cc3)nc(-n3cnc4ccc(F)cc43)nc2n1C1CCOCC1
0.1 to 1 | O=c1[nH]c2c(-c3ccc(Cl)cc3)nc(-n3cnc4ccc(F)cc43)nc2n1[C@@H]1CCOc2c(F)cccc21
0.1 to 1 | CC(C)CNc1nc(-n2cnc3ccc(F)cc32)nc2c1[nH]c(=O)n2[C@@H]1CCOc2c(F)cccc21
0.1 to 1 | CC(C)Cc1nc(-n2cnc3ccc(F)cc32)nc2c1[nH]c(=O)n2[C@@H]1CCOc2c(F)cccc21
0.1 to 1 | O=c1[nH]c2c(-c3cccc(Cl)c3)nc(-n3cnc4ccc(F)cc43)nc2n1C1CCOCC1
0.1 to 1 | O=c1[nH]c2c(-c3cccc4cnccc34)nc(-n3cnc4ccc(F)cc43)nc2n1C1CCOCC1
> 1 | CCCCc1nc(-n2cnc3ccc(F)cc32)nc2c1[nH]c(=O)n2[C@@H]1CCOc2c(F)cccc21
> 1 | CCC(C)c1nc(-n2cnc3ccc(F)cc32)nc2c1[nH]c(=O)n2[C@@H]1CCOc2c(F)cccc21 (some centres unmarked)
> 1 | O=c1[nH]c2c(-c3ccccc3Cl)nc(-n3cnc4ccc(F)cc43)nc2n1C1CCOCC1
> 1 | C[C@@H](Nc1nc(-n2cnc3ccc(F)cc32)nc2c1[nH]c(=O)n2C1CCOCC1)c1ccccc1
